# Measured values taken from ChEMBL document CHEMBL5608141, “Identification of compartment-specific drug sensitivities in CRC organoid-stroma co-cultures” (2024).
# What was measured:
# Format in all cases: functional, Homo sapiens
# Parameters in all cases: dose or concentration left out as unconfirmed
# Colon cancer organoid [1] = experiment: Identification of compartment-specific drug sensitivities in O06 CRC organoid-stroma F06 CAF co-cultures. Organoid is transduced with Lucferase2-P2A-EGFP lentivirus, fibroblast with Renilla-dsRed lentivirus. Dual-Glo Luciferase assay is used to report viability data.
# Colon cancer organoid [2] = experiment: Identification of compartment-specific drug sensitivities in O14 CRC organoid-stroma F14 CAF co-cultures. Organoid is transduced with Lucferase2-P2A-EGFP lentivirus, fibroblast with Renilla-dsRed lentivirus. Dual-Glo Luciferase assay is used to report viability data.
# Colon cancer organoid [3] = experiment: Identification of compartment-specific drug sensitivities in O20 CRC organoid-stroma F20 CAF co-cultures. Organoid is transduced with Lucferase2-P2A-EGFP lentivirus, fibroblast with Renilla-dsRed lentivirus. Dual-Glo Luciferase assay is used to report viability data.
# [4] = Transduced with Lucferase2-P2A-EGFP lentivirus
# [5] = Transduced with Renilla-dsRed lentivirus
Compound,Cell Viability (Colon cancer organoid [1]; [4]) [%],Cell Viability (Colon cancer organoid [1]; [5]) [%],Cell Viability (Colon cancer organoid [2]; [4]) [%],Cell Viability (Colon cancer organoid [2]; [5]) [%],Cell Viability (Colon cancer organoid [3]; [4]) [%],Cell Viability (Colon cancer organoid [3]; [5]) [%]
CCC(=O)N1CCOc2c(cc(-c3ccc(OC)c(OC)c3)cc2OCC2CCCN(C)C2)C1 (centres undefined),113.999,135.091,132.169,110.752,85.7121,123.175
Cl.Cl.c1ccc([C@@H]2C[C@H]2NC2CCNCC2)cc1,78.4875,97.0217,85.8382,107.738,42.8532,97.3617
CC(=O)Nc1ncc(CN2CCC[C@H](Cc3cc(C)nc(C)c3)C2)s1 [JNJ-65355394],116.935,172.928,108.182,61.6526,88.5022,103.797
CSc1cccnc1N1CCN(Cc2nc3ccccc3[nH]2)CC1 [A-769],75.6066,105.586,118.57,113.172,125.432,98.3481
COc1ncc(F)cc1CNc1ccc(Cc2c[nH]c3ncc(C)cc23)c(F)n1 [PLX-5622],82.7626,63.3822,119.621,35.1649,206.903,55.6932
Cc1ccc2nc(NCCN)c3ncc(C)n3c2c1.O=C(O)C(F)(F)F.O=C(O)C(F)(F)F,94.0156,112.188,111.823,88.3847,234.528,67.6056
CC(=O)N1CCC(c2ccc(C(=O)NC(=N)N)cc2C(F)(F)F)CC1 [BI 9627],118.657,157.583,100.11,107.329,96.0735,101.417
Cc1c(N2CCCC2)nc2ccc(Br)cc2c1C(=O)NC[C@H](CCC(=O)O)c1ccccc1Cl [BAY-6672],132.373,142.298,108.299,92.2123,83.1045,119.315
O=C1NC(c2ccccn2)Sc2ccccc21 (centres undefined) [BTZO-4],80.8326,70.0316,106.577,104.892,109.35,85.8309
CN1CCN(Cc2cc(NC(=O)c3ccc4c(c3)CN(c3ccccc3)CC4)cc(C(F)(F)F)c2)CC1,105.854,147.303,122.837,90.754,90.0307,84.0381
Nc1nc(NCc2ccccc2)nc(-c2cccc(CO)c2)n1 [ZINC32547799],97.3324,116.001,98.7801,87.8082,125.25,66.6285
Nc1nc(NCc2ccccc2)nc(-c2ccccc2CO)n1 [Ogerin],100.001,107.856,107.532,92.7829,81.1547,98.0569
CCOCCn1cc(C(=O)Nc2ccc(-n3nc(-c4cccnc4)cc3C(F)(F)F)cn2)ccc1=O [BI 1935],87.0785,88.003,82.3072,94.7961,76.3275,148.205
CC1=CC(C)=[N+]2C1=C(CCCCc1cn(CC(=O)N3CCc4nc(NC(=O)[C@H]5CCN(C#N)C5)sc4C3)nn1)c1c(C)cc(C)n1[B-]2(F)F,125.029,111.523,84.8013,97.3387,77.3724,101.216
CCc1cc(Nc2nccc(-c3c(-c4ccc(OC)c(C(=O)Nc5c(F)cccc5F)c4)nc4ccccn34)n2)c(OC)cc1N1CCC(N2CCN(S(C)(=O)=O)CC2)CC1,86.7992,78.7013,103.898,108.534,117.027,82.2783
CCNC(=O)c1cc2c(N3CCOC[C@@H]3C)ccnc2n1C,84.5961,69.3706,116.155,112.32,107.341,102.95
COc1ccc(CCc2nc3cc(-c4c(C)noc4C)ccc3n2C[C@H](C)N2CCOCC2)cc1Cl,78.634,97.126,147.618,121.055,96.1019,133.846
O=C(N1CCS(=O)(=O)CC1)N1C[C@H](c2ccc(OC(F)(F)F)cc2)C[C@H](c2nc(C3CC3)no2)C1 [BAY-386],109.098,172.496,96.4412,110.483,61.9652,114.29
CN1C(=O)c2sccc2N(C)c2nc(Nc3ccc(S(N)(=O)=O)cc3)ncc21,23.972,57.2364,48.6334,48.1427,35.7299,84.1947
O=C(Nc1cccnc1)c1cc(-c2ccnc(F)c2)ccc1OCc1ccccc1,87.3368,83.1264,142.728,107.033,125.357,104.766
COc1cc(N2CCC(O)CC2)ccc1Nc1cc(Nc2ccccc2S(=O)(=O)C(C)C)c2cc[nH]c2n1,85.241,81.2438,92.4485,85.3579,108.341,84.332
CCCOc1ccn2c(C(C)=O)cc(-c3ccccc3S(C)(=O)=O)c2c1,121.922,129.269,92.2028,99.133,150.252,117.742
CC1=C(C(=O)Nc2cc3cn[nH]c3cc2F)C(c2ccc(C(F)(F)F)cc2)CC(=O)N1 (centres undefined),110.512,74.1449,103.838,118.18,133.463,94.2958
COc1cc2c(NC3CCN(C(C)C)CC3)nc(N3CCC(F)(F)CC3)nc2cc1OCCCN1CCCC1,88.0521,104.162,78.7749,75.7418,136.596,132.743
